This series can be described thus: Solubility of catalysts in various solvents (maximum amount completely soluble). It is filed as physicochemical. The method, then:
Solubility of a various kind of catalysts in a various kind of solvents (water, methanol, acetone, acetonitrile, n-hexane, methylene chloride) was evaluated by studying maximum amount of catalysts completely soluble in a various kind of solvents.

On to Zinc acetylacetonate [ZnAA], for which the Solubility (in general, the dissolved amount per volume that the medium holds) reads like this: (solvent: acetone) 1000 µg/mL; (solvent: acetonitrile) “insoluble”; (solvent: methanol) 50000 µg/mL; (solvent: methylene chloride) 10000 µg/mL; (solvent: n-hexane) “insoluble”; (solvent: water) “insoluble”.

These data come from patent US6770728B2, “Process for preparing ocular lens with urethane compound and process for preparing urethane compound for medical instruments” (Menicon Co., Ltd., priority 1999, dated 2004).
